One assay concerns IL-12. Description: Human in vitro assay: inhibition of IL-12 production in stimulated human PBMC or THP-1 cells (ELISA). It counts as cell-based. As to conditions: read-out: IC50 Range (in vitro IC50 for IL-12). An excerpt: The biological activities of a compound of the invention can be evaluated by a number of cell-based assays. One of such assays can be conducted using cells from human peripheral blood mononuclear cells (PBMC) or human monocytic cell line (THP-1). The cells are stimulated with a combination of human interferon-γ (IFNγ) and lipopolysaccharide or a combination of IFNγ and Staphylococcus aureus Cowan I in the presence of a test compound. The level of inhibition of IL-12 production can be measured by determining the amount of p70 by using a sandwich ELISA assay with anti-human IL-12 antibodies. IC50 of the test compound can then be determined. Specifically, PBMC or THP-1 cells are incubated with the test compound. Cell viability was assessed using the bioreduction of MTS [3-(4,5-dimethylthiazol-2-yl)-5-(3-carboxymethoxyphenyl)-2-(4-sulfophenyl)-2H-tetrazolium] (Promega, Madison, Wis.).
8. Reagents. Staphylococcus aureus Cowan I (SAC) was obtained from Calbiochem (La Jolla, Calif.), and lipopolysaccharide (LPS, Serratia marscencens) was obtained from Sigma (St. Louis, Mo.). Human and mouse recombinant IFNγ were purchased from Boehringer Mannheim (Mannheim, Germany) and Pharmingen (San Diego, Calif.), respectively.
9. Human In Vitro Assay. Human PBMC were isolated by centrifugation using Ficoll-Paque (Pharmacia Biotech, Uppsala, Sweden) and prepared in RPMI medium supplemented with 10% fetal calf serum (FCS), 100 U/mL penicillin, and 100 μg/mL streptomycin. PBMC were plated in wells of a 96-well plate at a concentration of 5×10^5 cells/well, and primed by adding IFNγ (30 U/mL) for 22 h and stimulated by adding LPS (1 μg/mL), or by adding IFNγ (100 U/mL) and then stimulated by adding SAC (0.01%). A test pyrimidine compound was dissolved in DMSO, and added to wells of the 96-well plate. The final DMSO concentration was adjusted to 0.25% in all cultures, including the compound-free control. Human THP-1 cells were plated in wells, primed by adding IFNγ (100 U/mL) for 22 h and stimulated by adding SAC (0.025%) in the presence of different concentrations of the pyrimidine compound. Cell-free supernatants were taken 18 h later for measurement of cytokines. Cell viability was assessed using the bioreduction of MTS. Cell survival was estimated by determining the ratio of the absorbance in compound-treated groups versus compound-free control.
10. The supernatant was assayed for the amount of […], IL-12p70, or IL-10 by using a sandwich ELISA with anti-human antibodies, i.e., a Human IL-12 p40 ELISA kit from R&D Systems (Berkeley, Calif.), and a Human IL-12 p70 or IL-10 ELISA kit from Endogen (Cambridge, Mass.). Assays were based on the manufacturer's instructions.
The biological activities of compounds of the invention were tested on human PBMC or THP-1 cells.
In general terms: ELISA stands for enzyme-linked immunosorbent assay.

Assay [1] relates to Adjuvant arthritis (AA) in female Lewis rats. As to the kind of experiment: Treatment of adjuvant arthritis in rats. As to conditions: 20 mg/kg dose, orally once a day for 7 days (day 7-14). The format is in vivo, rat. The method, then:
Adjuvant arthritis (AA) was induced in female Lewis rats by the intracutaneous injection (base of the tail) of 0.1 mL of a 10 mg/mL bacterial suspension made from ground, heat-killed Mycobacterium tuberculosis H37Ra suspended in incomplete Freund's adjuvant. Rats were given a test compound orally once a day for 7 days (day 7-14), starting day 7 after mycobacterium induction. The development of polyarthritis was monitored daily by macroscopic inspection and assignment of an arthritis index to each animal, during the critical period (days 10 to 25 post-immunization).
The intensity of polyarthritis was scored according to the following scheme: (a) Grade each paw from 0 to 3 based on erythema, swelling, and deformity of the joints: 0 for no erythema or swelling; 0.5 if swelling is detectable in at least one joint; 1 for mild swelling and erythema; 2 for swelling and erythema of both tarsus and carpus; and 3 for ankylosis and bony deformity. Maximum score for all 4 paws is thus 12. (b) Grade for other parts of the body: for each ear, 0.5 for redness and another 0.5 if knots are present; 1 for connective tissue swelling (saddle nose); and 1 for the presence of knots or kinks in the tail. The highest possible arthritic index is 16.
Experiments with the AA model were repeated four times. […] The arthritis score used in this model is a reflection of the inflammatory state of the structures monitored and the results therefore show the ability of the test compound to provide relief for this aspect of the pathology.

In general, IC50 refers to the point on the concentration scale where inhibition reaches its midpoint. For `CC1CC/C(=N\Nc2cc(N3CCOCC3)nc(OCCN3CCOCC3)n2)c2ccccc21` (stereo not drawn) [Compound 19, N-(4-Methyl-3,4-dihydro-2H-naphthalen-1-ylidene)-N′-[6-morpholin-4-yl-2-(2-morpholin-4-yl-ethoxy)-pyrimidin-4-yl]-hydrazine], the IC50 in the assay with IL-12 is not below 1 µM. Regarding `c1cc2c(o1)CCC/C2=N\Nc1cc(N2CCOCC2)nc(OCCN2CCOCC2)n1` [Compound 41, N-(6,7-Dihydro-5H-benzofuran-4-ylidene)-N′-[6-morpholin-4-yl-2-(morpholin-4-yl-ethoxy)-pyrimidin-4-yl]-hydrazine], in the assay on IL-12, the 50% inhibitory concentration (IC50) is not below 1 µM.

For `Cc1ccc2occ/c(=N\Nc3cc(N4CCOCC4)nc(OCCN4CCOCC4)n3)c2c1` [Compound 39, N-(6-Methyl-chromen-4-ylidene)-N′-[6-morpholin-4-yl-2-(2-morpholin-4-yl-ethoxy)-pyrimidin-4-yl]-hydrazine], in the assay on IL-12, the IC50 is less than 1 µM.

With `COc1ccc2c(c1)CC/C2=N\Nc1cc(N2CCOCC2)nc(OCCN2CCOCC2)n1` [Compound 8, N-(5-Methoxy-indan-1-ylidene)-N′-[6-morpholin-4-yl-2-(2-morpholin-4-yl-ethoxy)-pyrimidin-4-yl]-hydrazine], in the assay with IL-12, the IC50 is not below 1 µM. With `CN1C(=O)/C(=N/Nc2cc(N3CCOCC3)nc(OCCN3CCOCC3)n2)c2ccccc21` [Compound 20, 1-Methyl-3-{[6-morpholin-4-yl-2-(2-morpholin-4-yl-ethoxy)-pyrimidin-4-yl]-hydrazono}-1,3-dihydro-indol-2-one], in the assay on IL-12, the half-maximal inhibitory concentration (IC50) was not below 1 µM.

Regarding `Oc1ccc2c(c1)CCC/C2=N\Nc1cc(N2CCOCC2)nc(OCCN2CCOCC2)n1` [Compound 16, N-(6-Hydroxy-3,4-dihydro-2H-naphthalen-1-ylidene)-N′-[6-morpholin-4-yl-2-(2-morpholin-4-yl-ethoxy)-pyrimidin-4-yl]-hydrazine], in the assay with IL-12, the IC50 is less than 1 µM. Turning to `CC1C/C(=N/Nc2cc(N3CCOCC3)nc(OCCN3CCOCC3)n2)c2ccccc21` (stereo not drawn) [Compound 6, N-(3-Methyl-indan-1-ylidene)-N′-[6-morpholin-4-yl-2-(2-morpholin-4-yl-ethoxy)-pyrimidin-4-yl]-hydrazine], the IC50 with IL-12 is not below 1 µM. As for `Cc1ccc2c(c1)/C(=N/Nc1cc(N3CCOCC3)nc(OCCN3CCOCC3)n1)CC2` [Compound 3, N-(6-Methyl-indan-1-ylidene)-N′-[6-morpholin-4-yl-2-(2-morpholin-4-yl-ethoxy)-pyrimidin-4-yl]-hydrazine], the IC50 in the assay with IL-12 is less than 1 µM. The “percent reduction in arthritic score” value in assay [1] came out at 25% reduction. Take `c1ccc2c(c1)CC(=NNc1cc(N3CCOCC3)nc(OCCN3CCOCC3)n1)C2` [Compound 10, N-(Indan-2-ylidene)-N′-[6-morpholin-4-yl-2-(2-morpholin-4-yl-ethoxy)-pyrimidin-4-yl]-hydrazine]: in the assay on IL-12, the concentration for half-maximal inhibition (IC50) was not below 1 µM. `Cc1ccc2c(c1)/C(=N/Nc1cc(N3CCOCC3)nc(OCCN3CCOCC3)n1)C(=O)N2` [Compound 1, 5-methyl-3-{[6-morpholin-4-yl-2-(2-morpholin-4-yl-ethoxy)-pyrimidin-4-yl]-hydrazono}-1,3-dihydro-indol-2-one]: the half-maximal inhibitory concentration (IC50) in the assay on IL-12 was less than 1 µM. On to `Clc1ccc2c(c1)/C(=N/Nc1cc(N3CCOCC3)nc(OCCN3CCOCC3)n1)CCS2` [Compound 37, N-(6-Chloro-thiochroman-4-ylidene)-N′-[6-morpholin-4-yl-2-(2-morpholin-4-yl-ethoxy)-pyrimidin-4-yl]-hydrazine], for which the concentration for half-maximal inhibition (IC50) in the assay on IL-12 was less than 1 µM. For `c1ccc2c(c1)OCC/C2=N\Nc1cc(N2CCOCC2)nc(OCCN2CCOCC2)n1` [Compound 12, N-(Chroman-4-ylidene)-N′-[6-morpholin-4-yl-2-(2-morpholin-4-yl-ethoxy)-pyrimidin-4-yl]-hydrazine], the IC50 in the assay with IL-12 was not below 1 µM. Regarding `Cc1cccc2c1CC/C2=N\Nc1cc(N2CCOCC2)nc(OCCN2CCOCC2)n1` [Compound 7, N-(4-Methyl-indan-1-ylidene)-N′-[6-morpholin-4-yl-2-(2-morpholin-4-yl-ethoxy)-pyrimidin-4-yl]-hydrazine], the IC50 in the assay with IL-12 was not below 1 µM. On to `CC(C)(O)CCc1nc(N/N=C2\CCCc3cc(O)ccc32)cc(N2CCOCC2)n1` [Compound 24, 5-{[2-(3-Hydroxy-3-methyl-butyl)-6-morpholin-4-yl-pyrimidin-4-yl]-hydrazono}-5,6,7,8-tetrahydro-naphthalen-2-ol], for which the IC50 in the assay with IL-12 is not below 1 µM. With `COc1ccc2c(c1)CCC/C2=N\Nc1cc(N2CCOCC2)nc(OCCN2CCOCC2)n1` [Compound 13, N-(6-Methoxy-3,4-dihydro-2H-naphthalen-1-ylidene)-N′-[6-morpholin-4-yl-2-(2-morpholin-4-yl-ethoxy)-pyrimidin-4-yl]-hydrazine], the concentration for half-maximal inhibition (IC50) in the assay with IL-12 was less than 1 µM. As for `O=C1OCCN1CCOc1nc(N/N=C2\CCCc3cc(O)ccc32)cc(N2CCOCC2)n1` [Compound 22, 3-(2-{4-[N′-(6-Hydroxy-3,4-dihydro-2H-naphthalen-1-ylidene)-hydrazino]-6-morpholin-4-yl-pyrimidin-2-yloxy}-ethyl)-oxazolidin-2-one], the half-inhibitory concentration (IC50) with IL-12 is less than 1 µM. With `O=[N+]([O-])c1ccc2c(c1)/C(=N/Nc1cc(N3CCOCC3)nc(OCCN3CCOCC3)n1)CCC2` [Compound 15, N-(7-Nitro-3,4-dihydro-2H-naphthalen-1-ylidene)-N′-[6-morpholin-4-yl-2-(2-morpholin-4-yl-ethoxy)-pyrimidin-4-yl]-hydrazine], the half-maximal inhibitory concentration (IC50) with IL-12 was less than 1 µM. As for `c1ccc2c(c1)CCC/C2=N\Nc1cc(N2CCOCC2)nc(OCCN2CCOCC2)n1` [Compound 11, N-(3,4-Dihydro-2H-naphthalen-1-ylidene)-N′-[6-morpholin-4-yl-2-(2-morpholin-4-yl-ethoxy)-pyrimidin-4-yl]-hydrazine], the IC50 in the assay on IL-12 was not below 1 µM. As to `c1ccc2c(c1)OC/C2=N\Nc1cc(N2CCOCC2)nc(OCCN2CCOCC2)n1` [Compound 5, N-(Benzofuran-3-ylidene)-N′-[6-morpholin-4-yl-2-(2-morpholin-4-yl-ethoxy)-pyrimidin-4-yl]-hydrazine], the concentration for half-maximal inhibition (IC50) in the assay on IL-12 is not below 1 µM.

With `Cc1cc(C)c2c(c1)/C(=N/Nc1cc(N3CCOCC3)nc(OCCN3CCOCC3)n1)CCC2` [Compound 17, N-(5,7-Dimethyl-3,4-dihydro-2H-naphthalen-1-ylidene)-N′-[6-morpholin-4-yl-2-(2-morpholin-4-yl-ethoxy)-pyrimidin-4-yl]-hydrazine], the IC50 in the assay with IL-12 is less than 1 µM. Still for that read-out and setting: with `O=S1(=O)CC/C(=N\Nc2cc(N3CCOCC3)nc(OCCN3CCOCC3)n2)c2cc(Cl)ccc21` [Compound 38, N-(6-Chloro-1,1-dioxo-1λ^6-thiochroman-4-ylidene)-N′-[6-morpholin-4-yl-2-(2-morpholin-4-yl-ethoxy)-pyrimidin-4-yl]-hydrazine] the figure was not below 1 µM. As for `c1ccc2c(c1)CC/C2=N\Nc1cc(N2CCOCC2)nc(OCCN2CCOCC2)n1` [Compound 4, N-(Indan-1-ylidene)-N′-[6-morpholin-4-yl-2-(2-morpholin-4-yl-ethoxy)-pyrimidin-4-yl]-hydrazine], the half-inhibitory concentration (IC50) with IL-12 was not below 1 µM. Consider `COc1ccc2c(c1)/C(=N/Nc1cc(N3CCOCC3)nc(OCCN3CCOCC3)n1)CCC2` [Compound 14, N-(7-Methoxy-3,4-dihydro-2H-naphthalen-1-ylidene)-N′-[6-morpholin-4-yl-2-(2-morpholin-4-yl-ethoxy)-pyrimidin-4-yl]-hydrazine], for which the IC50 in the assay on IL-12 was less than 1 µM.

Source of the values: patent US20060281711A1, “IL-12 modulatory compounds” (Synta Pharmaceuticals Corp., priority 2005, published 2006).
